The target of test [1] is Phosphatidylinositol 4,5-bisphosphate 3-kinase catalytic subunit gamma isoform (Homo sapiens) (UniProt P48736). Nature of the test: Selectivity interaction (Adapta Assay) EUB0001632a PIK3CG. Particulars: at 10 µM.
Test [2] deals with Mitogen-activated protein kinase kinase kinase kinase 5 (Homo sapiens) (UniProt Q9Y4K4). Description: Selectivity interaction (ActivX KiNativ screen (ex vivo kinase selectivity in human PBMCs)) EUB0001619a MAP4K5. The conditions noted are these: PBMC, at 1 µM. Type of test: cell-based.
For test [3], the target named is T1, Serine/threonine-protein kinase Nek5 (Homo sapiens) (UniProt Q6P3R8).
T1 sequence (whole entry): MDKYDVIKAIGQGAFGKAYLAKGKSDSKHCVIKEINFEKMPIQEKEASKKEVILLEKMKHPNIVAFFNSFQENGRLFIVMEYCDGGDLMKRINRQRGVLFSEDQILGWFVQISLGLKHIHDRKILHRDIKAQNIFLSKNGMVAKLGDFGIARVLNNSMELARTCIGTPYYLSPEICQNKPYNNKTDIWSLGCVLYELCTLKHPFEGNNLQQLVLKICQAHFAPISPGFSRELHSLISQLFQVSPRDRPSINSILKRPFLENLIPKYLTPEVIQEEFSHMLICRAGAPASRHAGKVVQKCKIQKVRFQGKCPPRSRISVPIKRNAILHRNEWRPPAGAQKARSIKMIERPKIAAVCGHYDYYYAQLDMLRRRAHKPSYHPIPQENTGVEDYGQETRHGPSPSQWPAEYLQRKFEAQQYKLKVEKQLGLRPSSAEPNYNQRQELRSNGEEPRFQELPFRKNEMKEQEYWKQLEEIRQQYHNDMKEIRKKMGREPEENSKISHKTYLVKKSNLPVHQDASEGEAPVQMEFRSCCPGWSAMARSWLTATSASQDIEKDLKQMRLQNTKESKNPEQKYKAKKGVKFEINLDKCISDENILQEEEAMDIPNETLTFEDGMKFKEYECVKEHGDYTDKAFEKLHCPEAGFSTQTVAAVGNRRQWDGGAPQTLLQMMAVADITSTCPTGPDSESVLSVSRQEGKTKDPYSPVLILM
Description: Selectivity interaction (KinomeScan (DiscoverX)) EUB0000695a NEK5. Particulars: at 100 nM.

For test [4], the target named is T2, NUAK family SNF1-like kinase 1 (Homo sapiens) (UniProt O60285).
T2 sequence (whole entry): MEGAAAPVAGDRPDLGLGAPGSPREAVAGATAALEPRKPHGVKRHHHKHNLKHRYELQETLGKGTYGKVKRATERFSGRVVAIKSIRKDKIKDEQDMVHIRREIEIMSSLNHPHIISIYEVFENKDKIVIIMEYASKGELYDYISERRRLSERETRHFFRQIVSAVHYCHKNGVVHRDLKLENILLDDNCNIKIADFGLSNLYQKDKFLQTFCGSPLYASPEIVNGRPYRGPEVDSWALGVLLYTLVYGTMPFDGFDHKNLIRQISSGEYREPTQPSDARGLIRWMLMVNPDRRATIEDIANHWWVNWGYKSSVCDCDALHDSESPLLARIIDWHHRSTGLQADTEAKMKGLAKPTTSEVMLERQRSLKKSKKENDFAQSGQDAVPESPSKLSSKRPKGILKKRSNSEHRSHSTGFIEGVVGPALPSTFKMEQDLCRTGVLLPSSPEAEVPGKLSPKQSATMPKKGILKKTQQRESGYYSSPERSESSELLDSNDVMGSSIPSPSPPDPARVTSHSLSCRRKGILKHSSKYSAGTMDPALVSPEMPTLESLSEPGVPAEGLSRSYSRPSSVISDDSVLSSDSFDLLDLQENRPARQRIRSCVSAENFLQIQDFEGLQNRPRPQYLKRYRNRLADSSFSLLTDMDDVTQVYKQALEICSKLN
The conditions noted are these: at 10 µM.

The target of test [5] is T3, Serine/threonine-protein kinase PLK4 (Homo sapiens) (UniProt O00444).
T3 sequence (whole entry): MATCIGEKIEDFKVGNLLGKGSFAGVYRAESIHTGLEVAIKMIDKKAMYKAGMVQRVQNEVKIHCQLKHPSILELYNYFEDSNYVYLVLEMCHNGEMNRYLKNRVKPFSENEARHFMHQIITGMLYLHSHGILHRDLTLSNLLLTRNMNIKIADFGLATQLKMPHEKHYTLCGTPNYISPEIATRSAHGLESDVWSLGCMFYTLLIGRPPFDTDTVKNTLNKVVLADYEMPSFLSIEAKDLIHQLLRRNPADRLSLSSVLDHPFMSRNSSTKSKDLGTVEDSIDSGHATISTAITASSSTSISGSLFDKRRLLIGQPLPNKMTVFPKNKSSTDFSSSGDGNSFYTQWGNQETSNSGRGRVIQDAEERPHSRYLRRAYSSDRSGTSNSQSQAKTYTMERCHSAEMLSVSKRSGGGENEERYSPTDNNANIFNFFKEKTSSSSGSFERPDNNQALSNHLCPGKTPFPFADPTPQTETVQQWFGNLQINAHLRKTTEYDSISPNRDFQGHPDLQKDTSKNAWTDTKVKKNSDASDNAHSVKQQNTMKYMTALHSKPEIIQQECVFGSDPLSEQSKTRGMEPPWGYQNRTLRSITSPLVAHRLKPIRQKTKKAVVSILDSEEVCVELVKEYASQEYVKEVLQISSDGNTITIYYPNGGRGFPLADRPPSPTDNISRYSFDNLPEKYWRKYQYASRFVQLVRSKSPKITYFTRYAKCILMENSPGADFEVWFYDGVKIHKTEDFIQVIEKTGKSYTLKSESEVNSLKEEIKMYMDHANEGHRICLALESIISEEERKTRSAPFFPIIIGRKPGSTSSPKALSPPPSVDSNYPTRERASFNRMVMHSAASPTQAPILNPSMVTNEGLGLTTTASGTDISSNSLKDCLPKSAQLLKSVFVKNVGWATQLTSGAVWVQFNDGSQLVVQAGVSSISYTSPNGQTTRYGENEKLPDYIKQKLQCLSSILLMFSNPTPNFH
Description: Selectivity interaction (KinomeScan (DiscoverX)) EUB0000045b PLK4.

For test [6], the target named is Leukocyte tyrosine kinase receptor (Homo sapiens, UniProt P29376). Nature of the test: Selectivity interaction (Ambit KINOMEscan and KiNATiv profiling in Jurkat cells) EUB0000090b LTK. Type of test: cell-based. Particulars: at 1 µM.
Test [7] addresses RAC-gamma serine/threonine-protein kinase (Homo sapiens, UniProt Q9Y243). Description: Selectivity interaction (KinomeScan (DiscoverX)) EUB0001049a AKT3. Particulars: at 1 µM.
Test [8] concerns the target Macrophage colony-stimulating factor 1 receptor (Homo sapiens) (UniProt P07333). Nature of the test: Selectivity interaction (KinomeScan (DiscoverX)) EUB0000229b CSF1R. The conditions noted are these: at 10 µM.
For test [9], the target named is Mitogen-activated protein kinase 1 (Homo sapiens, UniProt P28482). Nature of the test: Selectivity interaction (Kinase panel (KiNativ target engagement assay in Jurkat cells)) EUB0001635a MAPK1. Type of test: cell-based. The conditions noted are these: Selectivity number of off-targets 0.0, Selectivity number of targets 233.0, Source Knowledge https://www.sciencedirect.com/science/article/pii/S2451945619300674?via%3Dihub, at 1 µM.

Structures are written as SMILES.

Chain of Phosphatidylinositol 4,5-bisphosphate 3-kinase catalytic subunit gamma isoform (Homo sapiens) (P48736 whole entry, looked up, canonical isoform): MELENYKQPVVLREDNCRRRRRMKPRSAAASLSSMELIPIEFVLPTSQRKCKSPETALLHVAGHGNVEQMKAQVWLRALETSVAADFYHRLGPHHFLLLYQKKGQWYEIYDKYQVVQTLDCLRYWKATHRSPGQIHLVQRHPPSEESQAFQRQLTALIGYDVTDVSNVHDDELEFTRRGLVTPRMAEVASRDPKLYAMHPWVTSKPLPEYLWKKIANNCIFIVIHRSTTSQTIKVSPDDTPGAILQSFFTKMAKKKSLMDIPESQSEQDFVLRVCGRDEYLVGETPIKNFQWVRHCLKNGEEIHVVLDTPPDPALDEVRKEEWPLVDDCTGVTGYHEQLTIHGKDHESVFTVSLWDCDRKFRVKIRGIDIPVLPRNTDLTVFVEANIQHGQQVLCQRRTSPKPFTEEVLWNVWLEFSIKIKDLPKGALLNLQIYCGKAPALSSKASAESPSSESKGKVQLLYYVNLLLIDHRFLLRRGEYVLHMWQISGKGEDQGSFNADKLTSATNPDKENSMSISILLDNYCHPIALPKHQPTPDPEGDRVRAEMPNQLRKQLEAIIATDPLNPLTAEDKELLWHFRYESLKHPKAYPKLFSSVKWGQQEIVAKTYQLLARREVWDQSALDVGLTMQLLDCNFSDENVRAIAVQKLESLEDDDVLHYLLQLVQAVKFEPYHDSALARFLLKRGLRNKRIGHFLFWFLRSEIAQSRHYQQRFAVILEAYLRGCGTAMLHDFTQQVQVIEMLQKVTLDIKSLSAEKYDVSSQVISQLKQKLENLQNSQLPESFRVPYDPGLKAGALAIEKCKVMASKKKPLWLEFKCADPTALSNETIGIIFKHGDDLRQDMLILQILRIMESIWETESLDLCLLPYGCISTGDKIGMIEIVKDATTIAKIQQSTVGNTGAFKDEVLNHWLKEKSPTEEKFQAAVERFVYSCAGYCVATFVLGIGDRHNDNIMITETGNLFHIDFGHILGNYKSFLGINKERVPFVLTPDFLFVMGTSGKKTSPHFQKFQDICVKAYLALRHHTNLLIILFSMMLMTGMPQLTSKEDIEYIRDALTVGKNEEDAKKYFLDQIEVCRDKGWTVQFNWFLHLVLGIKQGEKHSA
Chain of Macrophage colony-stimulating factor 1 receptor (Homo sapiens) (P07333 whole entry): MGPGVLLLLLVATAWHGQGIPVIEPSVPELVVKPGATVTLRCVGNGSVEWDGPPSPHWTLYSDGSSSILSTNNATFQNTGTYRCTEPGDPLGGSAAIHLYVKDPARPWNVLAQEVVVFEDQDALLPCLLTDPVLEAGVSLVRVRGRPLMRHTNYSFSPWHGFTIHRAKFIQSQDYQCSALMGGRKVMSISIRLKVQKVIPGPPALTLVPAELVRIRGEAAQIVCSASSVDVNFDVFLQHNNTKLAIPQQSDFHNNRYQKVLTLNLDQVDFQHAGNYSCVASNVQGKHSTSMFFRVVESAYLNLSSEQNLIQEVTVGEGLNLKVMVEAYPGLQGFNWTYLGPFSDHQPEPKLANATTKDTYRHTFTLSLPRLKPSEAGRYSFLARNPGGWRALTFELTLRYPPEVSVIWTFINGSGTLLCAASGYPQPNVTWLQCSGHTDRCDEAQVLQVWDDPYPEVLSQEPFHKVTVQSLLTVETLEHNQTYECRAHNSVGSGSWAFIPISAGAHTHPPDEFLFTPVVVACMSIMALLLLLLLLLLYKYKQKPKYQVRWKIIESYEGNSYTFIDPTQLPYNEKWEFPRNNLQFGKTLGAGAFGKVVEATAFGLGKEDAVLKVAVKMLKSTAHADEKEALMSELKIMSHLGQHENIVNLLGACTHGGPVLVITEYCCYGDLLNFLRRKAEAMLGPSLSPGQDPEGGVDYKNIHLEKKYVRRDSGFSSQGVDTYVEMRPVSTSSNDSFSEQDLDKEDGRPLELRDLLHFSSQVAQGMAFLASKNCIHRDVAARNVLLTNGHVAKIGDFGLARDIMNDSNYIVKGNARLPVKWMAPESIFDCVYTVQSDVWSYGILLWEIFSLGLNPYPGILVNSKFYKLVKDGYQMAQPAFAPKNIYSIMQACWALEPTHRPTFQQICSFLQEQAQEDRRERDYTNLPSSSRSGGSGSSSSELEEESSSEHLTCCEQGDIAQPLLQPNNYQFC
Chain of Mitogen-activated protein kinase 1 (P28482 whole entry): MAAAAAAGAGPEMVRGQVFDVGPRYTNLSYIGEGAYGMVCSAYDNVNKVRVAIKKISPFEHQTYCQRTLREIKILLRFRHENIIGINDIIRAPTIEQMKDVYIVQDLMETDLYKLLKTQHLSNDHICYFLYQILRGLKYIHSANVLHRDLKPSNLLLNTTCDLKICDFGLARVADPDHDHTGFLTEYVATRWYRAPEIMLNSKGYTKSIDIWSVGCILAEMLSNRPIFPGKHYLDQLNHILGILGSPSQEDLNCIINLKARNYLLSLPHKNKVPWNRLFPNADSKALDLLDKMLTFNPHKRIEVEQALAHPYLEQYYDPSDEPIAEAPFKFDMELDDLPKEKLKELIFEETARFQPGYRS
Chain of RAC-gamma serine/threonine-protein kinase (Q9Y243 whole entry): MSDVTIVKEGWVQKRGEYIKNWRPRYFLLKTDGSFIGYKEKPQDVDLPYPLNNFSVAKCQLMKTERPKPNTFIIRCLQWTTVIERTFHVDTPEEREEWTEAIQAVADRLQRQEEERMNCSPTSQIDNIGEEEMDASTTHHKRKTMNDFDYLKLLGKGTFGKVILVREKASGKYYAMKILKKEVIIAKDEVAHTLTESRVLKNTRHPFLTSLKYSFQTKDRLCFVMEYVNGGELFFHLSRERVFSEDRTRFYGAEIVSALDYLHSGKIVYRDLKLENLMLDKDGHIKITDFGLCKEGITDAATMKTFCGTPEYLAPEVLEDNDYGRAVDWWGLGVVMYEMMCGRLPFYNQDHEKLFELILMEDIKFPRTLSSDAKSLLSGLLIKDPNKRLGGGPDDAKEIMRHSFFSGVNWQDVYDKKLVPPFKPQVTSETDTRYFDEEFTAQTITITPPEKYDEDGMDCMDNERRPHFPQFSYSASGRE
Chain of Mitogen-activated protein kinase kinase kinase kinase 5 (Homo sapiens) (Q9Y4K4 whole entry, looked up): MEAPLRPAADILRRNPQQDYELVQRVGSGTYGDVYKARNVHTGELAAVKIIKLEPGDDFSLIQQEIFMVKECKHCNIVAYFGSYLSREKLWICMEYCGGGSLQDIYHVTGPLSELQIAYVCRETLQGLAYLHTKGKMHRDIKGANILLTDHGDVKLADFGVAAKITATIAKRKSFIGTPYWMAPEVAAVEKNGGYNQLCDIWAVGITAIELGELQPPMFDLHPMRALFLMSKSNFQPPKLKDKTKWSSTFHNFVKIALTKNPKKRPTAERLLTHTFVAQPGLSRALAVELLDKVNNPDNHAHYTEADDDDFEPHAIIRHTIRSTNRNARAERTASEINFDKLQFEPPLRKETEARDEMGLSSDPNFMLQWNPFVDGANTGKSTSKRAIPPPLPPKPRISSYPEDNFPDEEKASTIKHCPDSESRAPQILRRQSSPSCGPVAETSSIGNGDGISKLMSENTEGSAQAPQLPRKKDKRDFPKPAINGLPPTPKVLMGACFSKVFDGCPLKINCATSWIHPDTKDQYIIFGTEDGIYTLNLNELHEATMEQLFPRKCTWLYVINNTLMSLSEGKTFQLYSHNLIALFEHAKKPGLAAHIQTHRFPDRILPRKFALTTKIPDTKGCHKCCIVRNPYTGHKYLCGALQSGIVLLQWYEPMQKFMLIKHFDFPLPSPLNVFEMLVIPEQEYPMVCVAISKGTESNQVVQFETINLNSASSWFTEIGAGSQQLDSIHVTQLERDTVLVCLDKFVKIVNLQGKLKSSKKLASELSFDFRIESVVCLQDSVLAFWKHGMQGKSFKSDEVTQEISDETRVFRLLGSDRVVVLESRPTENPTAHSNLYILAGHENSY
Chain of Leukocyte tyrosine kinase receptor (P29376 whole entry): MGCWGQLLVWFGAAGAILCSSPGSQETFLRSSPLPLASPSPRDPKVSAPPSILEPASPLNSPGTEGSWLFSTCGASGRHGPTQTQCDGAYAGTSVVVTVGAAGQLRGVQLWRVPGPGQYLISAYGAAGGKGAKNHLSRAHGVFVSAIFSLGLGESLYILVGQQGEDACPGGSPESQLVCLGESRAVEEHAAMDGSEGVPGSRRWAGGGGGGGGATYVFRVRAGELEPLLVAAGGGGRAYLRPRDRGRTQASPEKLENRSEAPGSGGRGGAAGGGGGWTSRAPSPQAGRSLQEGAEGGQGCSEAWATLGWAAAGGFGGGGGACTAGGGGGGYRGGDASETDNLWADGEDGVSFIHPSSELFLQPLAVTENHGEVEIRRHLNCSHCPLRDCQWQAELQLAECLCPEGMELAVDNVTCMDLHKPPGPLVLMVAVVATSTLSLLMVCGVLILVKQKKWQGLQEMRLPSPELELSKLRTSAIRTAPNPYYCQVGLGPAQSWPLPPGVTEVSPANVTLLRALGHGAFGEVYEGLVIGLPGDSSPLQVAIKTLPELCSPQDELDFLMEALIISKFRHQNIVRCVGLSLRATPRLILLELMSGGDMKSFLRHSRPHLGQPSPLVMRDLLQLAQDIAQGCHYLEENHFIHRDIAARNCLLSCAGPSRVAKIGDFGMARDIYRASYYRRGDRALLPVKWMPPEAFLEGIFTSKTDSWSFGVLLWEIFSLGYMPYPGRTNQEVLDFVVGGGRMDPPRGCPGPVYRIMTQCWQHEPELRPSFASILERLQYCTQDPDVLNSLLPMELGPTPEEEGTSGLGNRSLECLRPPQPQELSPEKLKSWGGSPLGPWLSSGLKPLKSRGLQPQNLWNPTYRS

Regarding `Cn1cc(-n2cnc3c(NCc4nc5cc(Cl)c(Cl)cc5[nH]4)nc(N4CCOCC4)nc32)cn1`, the % of inhibition in [1] is 29.5%.
On to `N#Cc1cccc(-c2c[nH]c3ncnc(N4CCOCC4)c23)c1`, for which the % of inhibition in test [2] was -13%.
As for `Cc1cc(F)c(C(=O)Nc2cccc(-c3nncn3C(C)C)n2)cc1-n1cnc(C2CC2)c1`, the % of control in test [3] was 91%.
The compound `Cc1cc([C@@H](C)Nc2ccccc2C(=O)O)c2nc(N3CCOCC3)cc(=O)n2c1` [AZD-6482] had a % of control in test [4] of 100%.
As to `C=CC(=O)Nc1cc(-n2c(=O)ccc3cnc4ccc(-c5ccc(NS(C)(=O)=O)cc5)cc4c32)ccc1C`, the % of control in [5] (at 1 µM) worked out at 100%; in test [5] (at 10 µM) it was 73%.
For `CN(C)C/C=C/C(=O)Nc1ccc(C(=O)N2CCCC(Nc3ncc(Cl)c(-c4c[nH]c5ccccc45)n3)C2)cc1` (stereo not given), in test [6], the % of control amounted to 84%.
As for `COc1cc(Nc2nc(C)cc(-c3cnn4nc(OC)ccc34)n2)cc(C(F)(F)F)c1`, in test [7], the % of control amounted to 96%.
Consider `COc1cc(N(C)c2ccnc3ccc(C(F)(F)F)cc23)cc(OC)c1OC`, for which the % binding in [8] came to 91%.
In the case of `C=CC(=O)Nc1ccc(C(=O)Nc2[nH]nc3c2CN(C(=O)N[C@H](CN(C)C)c2ccccc2)C3(C)C)cc1`, in test [9], the % of engagement was 0.4%.

The values above are taken from ChEMBL document CHEMBL5465560, “Selectivity Literature for EUbOPEN Chemogenomic Library” (2024).
